The values below come from US9771369B2, “Compounds and methods for kinase modulation, and indications therefor” (Plexxikon Inc., priority 2014, dated 2017).

For one test, the target named is c-Kit kinase (Homo sapiens (Human), UniProt P10721). The experiment in a line: c-Kit biochemical assay (AlphaScreen kinase activity). In short, it runs like this:
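IC50 values come from 8-point, 1:3 compound titrations measuring inhibition of peptide phosphorylation by c-Kit (commercial or His-tagged E. coli-expressed) over 1 h at room temperature, read by AlphaScreen PY30/streptavidin beads. Low-ATP version: 10 μM ATP, 100 nM biotin-(E4Y)3; high-ATP version: 100 μM ATP, 30 nM biotin-(E4Y)10.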
On the technique in general: Bead proximity is the source of the signal in Alpha formats.

For test [1], the system named is BaF3-FL KIT D816V or BaF3-FL KIT V560G/D816V cell line. Briefly: Cell-based assays of c-Kit mutant kinase activity (cell proliferation, ATPlite). The settings on record: at least one of the c-kit cell assays of Example 7. In short, it runs like this:
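BaF3 cells dependent on transfected full-length human KIT D816V or V560G/D816V (pCI-Neo, CMV promoter) were seeded at 1×10^4 cells/well and exposed to 8-point 1:3 dilutions from 10 μM top (0.2% DMSO) for three days at 37° C. ATPlite luminescence gave cell number; IC50 from concentration-response.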
(In general: Cellular ATP, detected with luciferase, serves as a proxy for viable cell number.)

Bounds are passed on as bounds.

Chain of c-Kit kinase (P10721 26-976): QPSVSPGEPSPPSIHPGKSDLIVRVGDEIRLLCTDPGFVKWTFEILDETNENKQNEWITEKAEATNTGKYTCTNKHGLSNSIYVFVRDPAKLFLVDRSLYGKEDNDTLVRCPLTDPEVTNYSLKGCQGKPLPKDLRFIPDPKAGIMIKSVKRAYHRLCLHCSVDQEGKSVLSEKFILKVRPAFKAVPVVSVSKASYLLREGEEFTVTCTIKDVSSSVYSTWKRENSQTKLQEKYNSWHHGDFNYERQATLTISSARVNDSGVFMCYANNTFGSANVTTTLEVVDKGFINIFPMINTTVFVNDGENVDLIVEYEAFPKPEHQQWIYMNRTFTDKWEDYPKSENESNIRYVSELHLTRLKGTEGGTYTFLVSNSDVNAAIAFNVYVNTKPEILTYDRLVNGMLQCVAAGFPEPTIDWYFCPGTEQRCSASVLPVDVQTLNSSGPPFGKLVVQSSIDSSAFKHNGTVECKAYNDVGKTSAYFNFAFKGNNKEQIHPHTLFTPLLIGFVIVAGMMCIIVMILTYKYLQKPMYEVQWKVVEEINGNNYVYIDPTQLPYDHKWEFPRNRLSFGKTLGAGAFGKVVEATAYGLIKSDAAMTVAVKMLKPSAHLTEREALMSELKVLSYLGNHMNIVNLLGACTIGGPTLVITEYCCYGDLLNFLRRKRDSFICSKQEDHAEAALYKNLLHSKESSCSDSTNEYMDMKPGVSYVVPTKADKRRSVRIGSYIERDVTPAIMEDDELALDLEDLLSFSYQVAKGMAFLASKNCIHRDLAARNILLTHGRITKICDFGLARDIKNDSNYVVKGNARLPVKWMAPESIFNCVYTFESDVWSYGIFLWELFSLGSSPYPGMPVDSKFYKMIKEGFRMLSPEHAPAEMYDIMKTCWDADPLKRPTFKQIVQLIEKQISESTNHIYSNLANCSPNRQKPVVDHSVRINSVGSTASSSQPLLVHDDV

A word on the IC50: it is the point on the concentration scale where inhibition reaches its midpoint. A high value points to lower potency. Turning to `COc1ccc(-c2[nH]c(C3(C)CCN(c4ncnc5[nH]c(-c6ccnc(OC)c6)cc45)CC3)nc2C)cc1` [P-3041, 4-[4-[5-(4-methoxyphenyl)-4-methyl-1H-imidazol-2-yl]-4-methyl-1-piperidyl]-6-(2-methoxy-4-pyridyl)-7H-pyrrolo[2,3-d]pyrimidine], the IC50 at c-Kit kinase is 0.0001 to 1 µM; in test [1], less than 10 µM.
Taken in the same sequence, the figures for `COc1cc(-c2cc3c(N4CCC(c5nc(C)c(-c6ccc(OC)c(OC)c6)[nH]5)CC4)ncnc3[nH]2)ccn1` [P-3042, 4-[4-[5-(3,4-dimethoxyphenyl)-4-methyl-1H-imidazol-2-yl]-1-piperidyl]-6-(2-methoxy-4-pyridyl)-7H-pyrrolo[2,3-d]pyrimidine] were 1 to 10 µM and less than 10 µM.
On to `COc1ccc(-c2[nH]c(C3(C)CCN(c4ncnc5[nH]c(-c6ccc(C#N)cc6)cc45)CC3)nc2C)cc1` [P-3043, 4-[4-[4-[5-(4-methoxyphenyl)-4-methyl-1H-imidazol-2-yl]-4-methyl-1-piperidyl]-7H-pyrrolo[2,3-d]pyrimidin-6-yl]benzonitrile], for which the IC50 on c-Kit kinase was 0.0001 to 1 µM; in test [1], less than 10 µM.
Turning to `Cc1nc(C2CCN(c3ncnc4[nH]c(-c5ccc(C(N)=O)cc5)cc34)CC2)[nH]c1-c1ccccc1` [P-3044, 4-[4-[4-(4-methyl-5-phenyl-1H-imidazol-2-yl)-1-piperidyl]-7H-pyrrolo[2,3-d]pyrimidin-6-yl]benzamide], the IC50 against c-Kit kinase was 0.0001 to 1 µM; in test [1], less than 10 µM.
Taken in the same sequence, the figures for `COc1ncc(-c2cc3c(N4CCC(c5nc(C)c(-c6ccccc6)[nH]5)CC4)ncnc3[nH]2)cn1` [P-3045, 6-(2-methoxypyrimidin-5-yl)-4-[4-(4-methyl-5-phenyl-1H-imidazol-2-yl)-1-piperidyl]-7H-pyrrolo[2,3-d]pyrimidine] were 10 to 300 µM and less than 10 µM.
Taken in the same sequence, the figures for `Cc1nc(C2CCN(c3ncnc4[nH]c(-c5cnn(C)c5)cc34)CC2)[nH]c1-c1ccccc1` [P-3046, 4-[4-(4-methyl-5-phenyl-1H-imidazol-2-yl)-1-piperidyl]-6-(1-methylpyrazol-4-yl)-7H-pyrrolo[2,3-d]pyrimidine] were 0.0001 to 1 µM and less than 10 µM.
For `Cc1nc(C2CCN(c3ncnc4[nH]c(-c5ccc(C#N)cc5)cc34)CC2)[nH]c1-c1ccccc1` [P-3047, 4-[4-[4-(4-methyl-5-phenyl-1H-imidazol-2-yl)-1-piperidyl]-7H-pyrrolo[2,3-d]pyrimidin-6-yl]benzonitrile], the results for the IC50 (against c-Kit kinase; in test [1]) were 1 to 10 µM and less than 10 µM, respectively.
With `Cc1nc(C2CCN(c3ncnc4[nH]c(-c5ccc(S(N)(=O)=O)cc5)cc34)CC2)[nH]c1-c1ccccc1` [P-3048, 4-[4-[4-(4-methyl-5-phenyl-1H-imidazol-2-yl)-1-piperidyl]-7H-pyrrolo[2,3-d]pyrimidin-6-yl]benzenesulfonamide], the IC50 was 1 to 10 µM against c-Kit kinase and less than 10 µM in test [1].
In the case of `CNC(=O)c1cccc(-c2cc3c(N4CCC(c5nc(C)c(-c6ccccc6)[nH]5)CC4)ncnc3[nH]2)c1` [P-3049, N-methyl-3-[4-[4-(4-methyl-5-phenyl-1H-imidazol-2-yl)-1-piperidyl]-7H-pyrrolo[2,3-d]pyrimidin-6-yl]benzamide], the IC50 against c-Kit kinase was 1 to 10 µM; in test [1] it was less than 10 µM.
Taken in the same sequence, the figures for `Cc1nc(C2CCN(c3ncnc4[nH]c(-c5cnn(C(F)F)c5)cc34)CC2)[nH]c1-c1ccccc1` [P-3050, 6-[1-(difluoromethyl)pyrazol-4-yl]-4-[4-(4-methyl-5-phenyl-1H-imidazol-2-yl)-1-piperidyl]-7H-pyrrolo[2,3-d]pyrimidine] were 0.0001 to 1 µM and less than 10 µM.
For `Cc1nc(C2CCN(c3ncnc4[nH]c(-c5cccc(S(N)(=O)=O)c5)cc34)CC2)[nH]c1-c1ccccc1` [P-3051, 3-[4-[4-(4-methyl-5-phenyl-1H-imidazol-2-yl)-1-piperidyl]-7H-pyrrolo[2,3-d]pyrimidin-6-yl]benzenesulfonamide], the IC50 against c-Kit kinase was 0.0001 to 1 µM; in test [1], less than 10 µM.
